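Interpolation was linear, between the two tested concentrations surrounding the appropriate level; five concentrations were tested over 48 hours in 96-well plates. GI50 = concentration required for 50% inhibition of growth.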 Active and inactive are the calls of the source. Rule as the data show it: active = GI50 up to about 1.1 µM and inactive = higher.
Key:
Assay in all cases: DTP human tumour cell line panel, 48 h
[1] = system: OVCAR-3
[2] = system: SN12C
[3] = system: U-251
[4] = system: SK-MEL-2
[5] = system: MOLT-4
[6] = system: NCI/ADR-RES
[7] = system: K562
[8] = system: EKVX
[9] = system: COLO 205
[10] = system: PC-3
[11] = system: SK-MEL-28
[12] = system: SF-295
[13] = system: M14
[14] = system: HT-29
[15] = system: MDA-MB-435
[16] = system: IGROV-1
[17] = system: 786-0
[18] = system: KM12
[19] = system: SK-OV-3
[20] = system: MDA-N

Measured: GI50

COc1ccccc1C(=O)c1ccc2ccccc2c1
inactive: [1] 9.4 µM | [2] 28.1 µM | [3] 13.3 µM | [4] 14.1 µM | [5] 4.34 µM | [6] 41.3 µM | [7] 4 µM | [8] 16.5 µM | [9] 20.4 µM | [10] 23.8 µM | [11] 39.3 µM | [12] 22 µM | [13] 11.9 µM | [14] 16.7 µM | [15] 3.47 µM | [16] 11.3 µM | [17] 30.1 µM | [18] 4.34 µM

Cc1ccc(N(C(=O)Nc2ccccc2)C2=NCC(C)S2)cc1C (stereo not given)
inactive: [1] 17.3 µM | [2] 13.7 µM | [3] 19.3 µM | [4] 17.4 µM | [5] > 10 µM | [19] 39.6 µM | [6] 14.8 µM | [7] 42.7 µM | [8] 17.9 µM | [9] 19.4 µM | [10] 24.4 µM | [11] 17.5 µM | [12] 24.4 µM | [13] 13.4 µM | [14] 18.2 µM | [16] 22.4 µM | [20] 17.6 µM | [17] 20.4 µM | [18] 17.8 µM

N#Cc1c(=O)c2ccccc2n2c1[nH]c1ccccc12
inactive: [1] 38.6 µM | [2] 32.3 µM | [3] 34.1 µM | [4] 47.3 µM | [5] 12.4 µM | [6] 15.3 µM | [7] 21.3 µM | [8] 25 µM | [9] 43.1 µM | [10] 29 µM | [11] 52.2 µM | [12] 32.8 µM | [13] 57.5 µM | [14] 30.5 µM | [15] 54 µM | [16] 16.1 µM | [17] 41 µM | [18] 27.4 µM

Nc1c(F)c(F)c2c(c1F)N(CCCCCl)c1ccccc1S2
inactive: [1] > 100 µM | [2] > 100 µM | [3] > 100 µM | [4] > 100 µM | [5] > 100 µM | [19] > 100 µM | [6] > 100 µM | [7] > 100 µM | [9] > 100 µM | [10] > 100 µM | [11] > 100 µM | [12] > 100 µM | [13] > 100 µM | [14] > 100 µM | [16] > 100 µM | [17] > 100 µM | [18] > 100 µM

CCOC(=O)c1ccc(-n2c(SCC)nc3sc(C)c(C)c3c2=O)cc1
inactive: [1] 40.6 µM | [2] > 100 µM | [3] > 100 µM | [4] > 100 µM | [5] > 10 µM | [19] > 100 µM | [7] > 100 µM | [8] > 100 µM | [9] > 100 µM | [11] > 100 µM | [12] > 100 µM | [13] > 100 µM | [14] > 100 µM | [16] > 100 µM | [17] 85.9 µM | [18] > 100 µM

COC(=O)CCC(=O)C(CC(=O)OC)C(=O)CCC(=O)NCCc1ccccc1 (stereo not given)
inactive: [1] > 100 µM | [2] > 100 µM | [3] > 100 µM | [4] > 100 µM | [5] > 100 µM | [19] > 100 µM | [7] > 100 µM | [8] > 100 µM | [9] > 100 µM | [11] > 100 µM | [12] > 100 µM | [13] > 100 µM | [14] > 100 µM | [16] > 100 µM | [17] > 100 µM | [18] > 100 µM

CC(=O)N(C)c1cc(NCc2ccccc2)ccc1OCc1ccccc1
inactive: [1] 16.6 µM | [2] 17.5 µM | [3] 17.4 µM | [4] 16.9 µM | [5] 25.8 µM | [19] 21.7 µM | [6] 20.2 µM | [7] 22.1 µM | [8] 18.5 µM | [9] 22.3 µM | [11] 18.9 µM | [12] 15.4 µM | [13] 22.1 µM | [14] 20.6 µM | [15] 16.6 µM | [16] 16.4 µM | [17] 27.9 µM | [18] 21.3 µM

N=c1n(CC(=O)NC23CC4CC(CC(C4)C2)C3)c2ccccc2n1CC(=O)NC12CC3CC(CC(C3)C1)C2
inactive: [1] 1.88 µM | [2] 1.87 µM | [3] 1.66 µM | [4] 17.2 µM | [5] 2.64 µM | [19] 15.7 µM | [7] 2.82 µM | [8] 2.26 µM | [9] 1.89 µM | [11] 1.79 µM | [12] 2.06 µM | [13] 1.96 µM | [14] 1.8 µM | [16] 1.56 µM | [17] 1.8 µM | [18] 1.61 µM

CCCCCCNCCc1c[nH]cn1
inactive: [1] > 100 µM | [2] > 100 µM | [3] > 100 µM | [4] > 100 µM | [5] > 100 µM | [19] > 100 µM | [6] > 100 µM | [7] > 100 µM | [8] > 100 µM | [9] > 100 µM | [10] > 100 µM | [11] > 100 µM | [12] > 100 µM | [13] > 100 µM | [14] > 100 µM | [15] > 100 µM | [16] > 100 µM | [17] > 100 µM | [18] > 100 µM

CC(=O)O[C@H]1CC[C@@]2(C)C(=CC[C@H]3[C@@H]4C/C(=C\c5ccc(N(C)C)cc5)[C@H](OC(C)=O)[C@@]4(C)CC[C@@H]32)C1
inactive: [1] 8.93 µM | [2] 14.7 µM | [3] 6.71 µM | [4] 8.53 µM | [5] 5.98 µM | [19] 43.4 µM | [6] 13.1 µM | [7] 6.59 µM | [8] 8.69 µM | [9] 4.54 µM | [10] 4.41 µM | [11] 12.7 µM | [12] 4.12 µM | [13] 14.2 µM | [14] 8.43 µM | [16] 13.8 µM | [20] 13.5 µM | [17] 4.36 µM | [18] 11.9 µM

COC(=O)C1=C(OC(=O)/C(=C/c2ccc(Cl)cc2)c2ccccc2)C(C(=O)OC)[C@@]2(O)[C@@H](C(=O)OC)[C@H](C)C[C@@H]1[C@@H]2C(=O)OC (stereo not given in full)
inactive: [1] > 100 µM | [2] > 100 µM | [3] 26.7 µM | [4] > 100 µM | [5] > 100 µM | [19] > 100 µM | [6] 37.4 µM | [7] > 100 µM | [8] 27.2 µM | [9] > 100 µM | [10] 37.5 µM | [11] > 100 µM | [12] 6.79 µM | [13] > 100 µM | [14] > 100 µM | [15] > 100 µM | [16] 23.6 µM | [17] > 100 µM | [18] > 100 µM
